Residues, ends and D or L forms follow the SMILES beside them.
What was measured:
[1] = system: inhibition of growth hormone, insulin and glucogen secretion; assay: Potency relative to somatostatin (SRIF); details: SRIF assigned a value of 1, based upon inhibition of growth hormone
Procedure: (§1) Following the same procedure as described above for Assay 1, additional compounds were tested for local; i.e., topical, anti-inflammatory activity. […] In Table IV, the potency of each compound tested relative to that of somatostatin is also shown, the somatostatin (SRIF) potency being assigned a value of 1 and based upon its inhibition of growth hormone, insulin and glucogen secretion.

[2] = system: cellular proliferation (granuloma); assay: Pellet granuloma assay, compounds administered subcutaneously as saline injections (Assay 3); assay type: in vivo, rats (Charles River-CD)
Procedure: (§2) Male rats (Charles River-CD) of about 150-160 grams in weight were subcutaneously implanted in the abdominal area with two pellets each. Five animals were used per group. The pellets used were preweighed and all used in a given assay were ±1 mg from one another. The compounds were dissolved in absolute ethanol and the indicated dose applied to each pellet in 0.2 ml. The alcohol was removed in vacuo overnight. Just prior to implantation, each pellet was moistened with 0.2 ml of 0.9% saline containing 1 mg each of penicillin and streptomycin. After seven days, the pellets were dissected out together with adhering granulomatous tissue. After drying in a vacuum oven overnight at 60°-65° C., the pellets were weighed. The difference in weight between the original pellet weight and the implanted pellet weight was used as a measure of cellular proliferation (granuloma). The lower the net weight, the more anti-inflammatory activity.
Following the procedure described above for Assau 1, additional tests were conducted except that the compounds were administered subcutaneously as saline injections. The tests were carried out on six animals per group and the results obtained are shown below in Table III.

[3] = system: cellular proliferation (granuloma); assay: Pellet granuloma assay, compound applied locally to subcutaneously implanted pellets (Assays 1, 2, 4); assay type: in vivo, rats (Charles River-CD); details: for Body Wt. Change: Assay 2; for Granulosimer Net weight: Assay 1, six animals per group, 7 days, ± 2 S.E. of mean
Procedure: The assay method employed to test the Formula I, II, III, IV and V compounds as local anti-inflammatory agents is a modification of the method described by S. L. Steelman, et al. [Steroids, 1, 163 (1963)] as follows:
as §2
Following the procedure of the Assay Method described above, somatostatin (SRIF) was tested for its anti-inflammatory activity. The structure of somatostatin is: [drawing 5]
Six animals per group were used in this test and the results obtained are shown in Table I below wherein hydrocortisone was used as a positive control:
The results obtained following the Assay Method described above using Compound 8 of Formula I are shown below in Table II wherein hydrocortisone was used as a positive control.
as §1

[4] = administered subcutaneously, Table III

CC(C)[C@@H]1NC(=O)[C@H](CCCCN)NC(=O)[C@@H](Cc2c[nH]c3ccccc23)NC(=O)[C@H](Cc2ccc(O)cc2)NC(=O)[C@H](C)N(C)C(=O)[C@H](Cc2c[nH]c3ccccc23)NC1=O [9/I, Cyclo-(N-Me-Ala-Tyr-D-Trp-Lys-Val-Trp)] (HELM PEPTIDE1{K.V.W.[meA].Y.[dW]}$PEPTIDE1,PEPTIDE1,1:R1-6:R2$$$V2.0)
Potency Relative to Somatostatin (SRIF) [1]: 20-35

CC(C)[C@@H]1NC(=O)[C@H](CCCCN)NC(=O)[C@H](Cc2c[nH]c3ccccc23)NC(=O)[C@H](Cc2ccc(O)cc2)NC(=O)[C@H](C)N(C)C(=O)[C@H](Cc2ccccc2)NC1=O [10/I, Cyclo-(N-Me-Ala-Tyr-L-Trp-Lys-Val-Phe)]
Potency Relative to Somatostatin (SRIF) [1]: 50

C[C@@H]1NC(=O)[C@H](CO)NC(=O)[C@H](CCCCN)NC(=O)[C@@H](Cc2c[nH]c3ccccc23)NC(=O)[C@H](Cc2c[nH]cn2)NC(=O)[C@H](Cc2ccccc2)N(C)C1=O [11/I, Cyclo-(Ser-Ala-N-Me-Phe-His-D-Trp-Lys)] (HELM PEPTIDE1{A.[meF].H.[dW].K.S}$PEPTIDE1,PEPTIDE1,1:R1-6:R2$$$V2.0)
Potency Relative to Somatostatin (SRIF) [1]: 200

C[C@@H](O)[C@@H]1NC(=O)[C@H](CCCCN)NC(=O)[C@@H](Cc2c[nH]c3ccccc23)NC(=O)[C@H](Cc2ccccc2)NC(=O)[C@@H]2CCCN2C(=O)[C@H](Cc2ccccc2)NC1=O [13/II, Cyclo-(Pro-Phe-D-Trp-Lys-Thr-Phe)] (HELM PEPTIDE1{P.F.[dW].K.T.F}$PEPTIDE1,PEPTIDE1,1:R1-6:R2$$$V2.0)
Potency Relative to Somatostatin (SRIF) [1]: 6

CC(C)[C@@H]1NC(=O)[C@H](CCCCN)NC(=O)[C@@H](Cc2c[nH]c3ccccc23)NC(=O)[C@H](Cc2ccc(O)cc2)NC(=O)[C@H](C)N(C)C(=O)[C@H](Cc2ccccc2)NC1=O [Compound 8 of Formula I, Cyclo-(N-Me-Ala-Tyr-D-Trp-Lys-Val-Phe)]
effect on adrenal weight (in words) [2, 4]: slight decrease in the adrenal weight | anti-inflammatory activity (in words) ([2]; administered systemically, i.e., subcutaneously): no anti-inflammatory activity | Avg. Adrenal wt. ([2]; daily dose 200 mcg subcutaneously, ± S.E. of mean): 36 ± 2 mg | Potency Relative to Somatostatin (SRIF) [1]: 50-100 | Body Wt. Change ([3]; 10 mcg/pellet): +43 gm | Body Wt. Change ([3]; 100 mcg/pellet): +40 gm | anti-inflammatory activity (in words) ([3]; doses of 100-200 micrograms per pellet, Table II): significant activity

C[C@]12CCC(=O)C=C1CC[C@@H]1[C@@H]2[C@@H](O)C[C@@]2(C)[C@H]1CC[C@]2(O)C(=O)CO [Hydrocortisone, hydrocortisone]
activity (in words) [2, 4]: typical activity | Body Wt. Change ([3]; 200 mcg/pellet): +44 gm | Granulosimer Net weight ([3]; 300 mcg/pellet): 24 ± 2 mg | Body Wt. Change ([3]; 1000 mcg/pellet): +41 gm

C[C@H](N)C(=O)NCC(=O)N[C@H]1CSSC[C@@H](C(=O)O)NC(=O)[C@H](CO)NC(=O)[C@H]([C@@H](C)O)NC(=O)[C@H](Cc2ccccc2)NC(=O)[C@H]([C@@H](C)O)NC(=O)[C@H](CCCCN)NC(=O)[C@H](Cc2c[nH]c3ccccc23)NC(=O)[C@H](Cc2ccccc2)NC(=O)[C@H](Cc2ccccc2)NC(=O)[C@H](CC(N)=O)NC(=O)[C@H](CCCCN)NC1=O [SRIF, somatostatin]
Potency Relative to Somatostatin (SRIF) [1]: 1 | Granulosimer Net weight ([3]; 1500 mcg/pellet): 25 ± 1 mg | anti-inflammatory activity (in words) ([3]; Assay 1, Table I, on pellet): effective anti-inflammatory agent

From US4748153A, “Compounds having somatostatin-like activity useful as local anti-inflammatory agents” (Merck & Co., Inc., priority 1987, dated 1988)
